Here are results for 16 molecules from ChEMBL document CHEMBL5532664, “Discovery, Optimization, and Evaluation of Potent and Selective DNA-PK Inhibitors in Combination with Chemotherapy or Radiotherapy for the Treatment of Malignancies” (J Med Chem, 2024).

pIC50: −log10 of the molar value. Activity calls are given as the source filed them. The calls are words filed in the database; no cut-off is given here.

The nature of series [1]: in vivo. The conditions noted are these: Sprague-Dawley, rat, po, 5 mg/kg.
A short description of series [2]: in vivo. The conditions noted are these: Sprague-Dawley, rat, iv, 5 mg/kg.
In series [3] the target is hERG (KCNH2) (Homo sapiens, UniProt Q12809). As to the kind of experiment: in vitro.
Description: Inhibition of human ERG at 20 uM relative to control
For series [4], the target named is DNA-dependent protein kinase catalytic subunit (Homo sapiens, UniProt P78527).
Description: Inhibition of human DNA-PK incubated for 30 mins in presence of Mg/ATP by HTRF method
The subject of series [5] is HCT-116. The experiment in a line: Inhibition of colony formation in human HCT-116 cells at […] preincubated with compound for 1 hr followed by exposure to 2 Gy gamma irradiation and measured after 7 days by crystal violet staining based chemiluminescence assay relative to control. The class given is functional. The conditions noted are these: HCT-116, light or radiation study, dose 0.25 µM, time 169 hrs.

Series [6] in a line: in vivo. The settings on record: Sprague-Dawley, rat, po, 5 mg/kg. The source holds these as a separate data set.
Series [7] is described as follows: in vivo. The settings on record: Sprague-Dawley, rat, iv, 5 mg/kg. The source holds these as a separate data set.
Series [8] is described as follows: in vivo. The conditions noted are these: Sprague-Dawley, rat, plasma, iv, 5 mg/kg.
Description: (§1) Clearance in Sprague-Dawley rat plasma at 5 mg/kg, iv measured upto 24 hrs by LC-MS/MS analysis
Series [9] in a line: in vivo. The conditions noted are these: Sprague-Dawley, rat, po, 5 mg/kg. The source holds these as a separate data set.
Series [10] in a line: in vitro. The settings on record: human, liver microsomes. On the technique in general: Microsomes from liver hold many membrane-bound enzymes, among them those of drug oxidation.
Series [11] can be described thus: in vivo. The settings on record: Sprague-Dawley, rat, iv, 5 mg/kg. The source holds these as a separate data set.
A short description of series [12]: in vivo. The conditions noted are these: Sprague-Dawley, rat, plasma, po, 5 mg/kg.
Description: Clearance in Sprague-Dawley rat plasma at 5 mg/kg, po measured upto 24 hrs by LC-MS/MS analysis
Series [13] is described as follows: in vivo. The settings on record: Sprague-Dawley, rat, po, 5 mg/kg. The source holds these as a separate data set.
The test system of series [14] is HCT-116. The experiment in a line: Inhibition of colony formation in human HCT-116 cells preincubated with compound for 1 hr followed by exposure to 2 Gy gamma irradiation and measured after 7 days by crystal violet staining based chemiluminescence assay. The format is functional, cell-based. The conditions noted are these: HCT-116, light or radiation study.
The test system of series [15] is NCI-H460. The experiment in a line: Antitumor activity against human NCI-H460 cells xenografted in BALB/ c nude mouse assessed as inhibition of tumor growth at 100 mg/kg, po administered once daily with 2 Gy irradiation and measured upto 7 days by vernier caliper analysis. The format is functional, organism-based. The conditions noted are these: time <= 7.0 day. In general terms: Xenograft models place foreign cells or tissue in a host animal.

The conditions of series [16]: rat, in vivo, iv, 5 mg/kg, 24 h.
Description: as §1
Series [17] relates to A549. The experiment in a line: Antitumor activity against human A549 cells xenografted in BALB/c nude mouse assessed as inhibition of tumor growth at 10 mg/kg, iv administered thrice measured upto 26 days by vernier caliper analysis. The format is functional, organism-based. The settings on record: time <= 26.0 day.

Sequence of DNA-dependent protein kinase catalytic subunit (P78527 whole entry): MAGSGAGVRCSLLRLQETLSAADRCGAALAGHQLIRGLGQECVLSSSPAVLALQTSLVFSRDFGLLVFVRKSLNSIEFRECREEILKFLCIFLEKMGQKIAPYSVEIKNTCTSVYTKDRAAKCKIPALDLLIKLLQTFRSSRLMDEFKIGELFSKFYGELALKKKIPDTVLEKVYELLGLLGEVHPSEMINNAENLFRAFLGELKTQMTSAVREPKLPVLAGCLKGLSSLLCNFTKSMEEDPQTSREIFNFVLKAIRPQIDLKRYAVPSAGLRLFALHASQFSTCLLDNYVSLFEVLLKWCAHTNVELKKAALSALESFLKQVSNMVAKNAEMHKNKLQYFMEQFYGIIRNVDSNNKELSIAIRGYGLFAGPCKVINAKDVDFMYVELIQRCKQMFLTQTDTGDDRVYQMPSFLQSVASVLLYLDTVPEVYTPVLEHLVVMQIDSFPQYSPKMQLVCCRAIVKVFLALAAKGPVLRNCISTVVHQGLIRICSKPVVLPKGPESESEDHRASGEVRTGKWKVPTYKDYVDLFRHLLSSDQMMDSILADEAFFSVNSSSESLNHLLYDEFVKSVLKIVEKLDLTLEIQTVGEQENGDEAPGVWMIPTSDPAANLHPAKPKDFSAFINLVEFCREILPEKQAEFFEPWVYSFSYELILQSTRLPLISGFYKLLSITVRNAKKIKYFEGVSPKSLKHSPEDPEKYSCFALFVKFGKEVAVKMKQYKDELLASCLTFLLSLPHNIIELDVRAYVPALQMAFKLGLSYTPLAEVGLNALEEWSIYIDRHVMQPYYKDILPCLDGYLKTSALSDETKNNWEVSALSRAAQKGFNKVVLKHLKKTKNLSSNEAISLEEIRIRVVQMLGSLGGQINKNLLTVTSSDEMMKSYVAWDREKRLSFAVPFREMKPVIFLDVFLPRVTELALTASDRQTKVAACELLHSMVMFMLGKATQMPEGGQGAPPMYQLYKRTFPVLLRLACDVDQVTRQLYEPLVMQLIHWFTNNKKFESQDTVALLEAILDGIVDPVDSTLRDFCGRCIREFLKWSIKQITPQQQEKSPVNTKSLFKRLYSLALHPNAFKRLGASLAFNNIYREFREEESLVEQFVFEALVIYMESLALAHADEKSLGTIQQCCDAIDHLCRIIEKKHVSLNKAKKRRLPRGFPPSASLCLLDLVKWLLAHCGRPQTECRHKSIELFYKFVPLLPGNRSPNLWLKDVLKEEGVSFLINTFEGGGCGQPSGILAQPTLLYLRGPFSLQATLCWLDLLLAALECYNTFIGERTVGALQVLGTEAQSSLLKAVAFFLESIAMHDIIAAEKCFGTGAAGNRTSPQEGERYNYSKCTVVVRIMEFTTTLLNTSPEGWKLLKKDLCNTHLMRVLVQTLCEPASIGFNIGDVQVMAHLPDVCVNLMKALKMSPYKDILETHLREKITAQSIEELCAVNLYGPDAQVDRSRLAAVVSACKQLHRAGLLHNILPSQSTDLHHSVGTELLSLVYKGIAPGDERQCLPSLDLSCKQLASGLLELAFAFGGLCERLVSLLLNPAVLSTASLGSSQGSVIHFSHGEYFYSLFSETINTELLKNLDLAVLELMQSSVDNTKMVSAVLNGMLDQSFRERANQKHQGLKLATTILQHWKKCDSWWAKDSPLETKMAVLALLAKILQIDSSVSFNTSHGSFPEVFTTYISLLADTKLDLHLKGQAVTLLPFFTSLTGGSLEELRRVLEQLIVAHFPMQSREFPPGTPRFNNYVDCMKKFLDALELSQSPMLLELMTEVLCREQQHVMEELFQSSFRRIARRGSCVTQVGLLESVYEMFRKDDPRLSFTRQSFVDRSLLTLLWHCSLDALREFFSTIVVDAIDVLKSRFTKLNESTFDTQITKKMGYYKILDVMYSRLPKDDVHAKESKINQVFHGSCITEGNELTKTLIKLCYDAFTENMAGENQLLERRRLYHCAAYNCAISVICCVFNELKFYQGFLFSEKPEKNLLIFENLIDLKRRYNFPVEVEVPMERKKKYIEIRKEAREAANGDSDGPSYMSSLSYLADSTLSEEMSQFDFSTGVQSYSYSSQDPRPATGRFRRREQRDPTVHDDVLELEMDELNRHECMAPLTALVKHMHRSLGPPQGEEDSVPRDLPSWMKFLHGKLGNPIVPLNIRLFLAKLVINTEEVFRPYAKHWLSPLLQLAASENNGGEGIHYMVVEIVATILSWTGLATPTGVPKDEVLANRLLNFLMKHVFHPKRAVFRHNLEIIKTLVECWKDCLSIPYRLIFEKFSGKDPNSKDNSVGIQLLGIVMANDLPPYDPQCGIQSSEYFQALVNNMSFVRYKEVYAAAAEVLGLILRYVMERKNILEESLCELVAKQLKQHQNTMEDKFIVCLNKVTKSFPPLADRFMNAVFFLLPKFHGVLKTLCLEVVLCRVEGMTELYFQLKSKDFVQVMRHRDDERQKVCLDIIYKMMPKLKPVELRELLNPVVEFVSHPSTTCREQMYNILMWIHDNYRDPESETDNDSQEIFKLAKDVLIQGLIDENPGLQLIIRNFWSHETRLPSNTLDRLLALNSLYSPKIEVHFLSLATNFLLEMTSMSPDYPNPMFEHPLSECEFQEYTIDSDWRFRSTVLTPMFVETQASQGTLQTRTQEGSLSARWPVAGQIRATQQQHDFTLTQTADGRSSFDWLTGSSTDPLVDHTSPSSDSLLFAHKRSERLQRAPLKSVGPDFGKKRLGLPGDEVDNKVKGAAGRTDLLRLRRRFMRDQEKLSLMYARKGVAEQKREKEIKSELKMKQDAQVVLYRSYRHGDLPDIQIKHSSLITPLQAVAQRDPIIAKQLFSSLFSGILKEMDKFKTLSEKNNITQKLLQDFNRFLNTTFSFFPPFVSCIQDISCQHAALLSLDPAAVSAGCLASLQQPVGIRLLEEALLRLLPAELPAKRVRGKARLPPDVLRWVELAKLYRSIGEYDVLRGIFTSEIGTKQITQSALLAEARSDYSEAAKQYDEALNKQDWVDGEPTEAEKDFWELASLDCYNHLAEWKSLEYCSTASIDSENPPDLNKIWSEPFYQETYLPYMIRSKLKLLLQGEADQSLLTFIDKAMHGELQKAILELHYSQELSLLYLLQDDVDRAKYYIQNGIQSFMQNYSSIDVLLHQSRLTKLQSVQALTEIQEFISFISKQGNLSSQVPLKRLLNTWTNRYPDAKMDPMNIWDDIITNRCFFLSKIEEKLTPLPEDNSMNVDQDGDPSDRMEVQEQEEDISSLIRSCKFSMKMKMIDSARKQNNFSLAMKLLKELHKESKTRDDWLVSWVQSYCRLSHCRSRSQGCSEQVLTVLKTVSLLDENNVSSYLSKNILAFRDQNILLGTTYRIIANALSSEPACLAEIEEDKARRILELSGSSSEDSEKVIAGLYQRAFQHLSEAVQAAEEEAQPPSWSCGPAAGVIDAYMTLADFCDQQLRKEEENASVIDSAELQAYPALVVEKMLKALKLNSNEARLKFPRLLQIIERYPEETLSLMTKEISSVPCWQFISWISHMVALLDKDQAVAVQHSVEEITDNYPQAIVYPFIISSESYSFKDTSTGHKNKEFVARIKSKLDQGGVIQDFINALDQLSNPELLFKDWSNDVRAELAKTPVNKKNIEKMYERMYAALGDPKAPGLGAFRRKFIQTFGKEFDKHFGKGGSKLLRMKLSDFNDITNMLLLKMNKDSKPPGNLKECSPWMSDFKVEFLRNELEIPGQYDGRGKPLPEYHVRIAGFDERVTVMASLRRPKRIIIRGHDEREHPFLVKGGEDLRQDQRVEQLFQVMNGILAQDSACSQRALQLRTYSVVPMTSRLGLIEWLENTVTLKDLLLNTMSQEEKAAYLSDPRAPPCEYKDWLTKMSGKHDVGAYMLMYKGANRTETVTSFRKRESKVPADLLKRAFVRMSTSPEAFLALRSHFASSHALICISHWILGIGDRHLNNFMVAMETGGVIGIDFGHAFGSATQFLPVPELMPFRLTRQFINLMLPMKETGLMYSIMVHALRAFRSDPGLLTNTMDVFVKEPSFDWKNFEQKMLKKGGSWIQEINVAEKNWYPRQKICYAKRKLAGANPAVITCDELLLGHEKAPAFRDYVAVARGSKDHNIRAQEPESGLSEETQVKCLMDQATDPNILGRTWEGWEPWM

Usually Cmax stands for the maximum level reached in the sampled fluid or tissue. One may read the inhibition as the change of the read-out against control, counted positive when it falls. Usually pIC50 stands for −log10 of the IC50, conventionally taken in molar units. The term bioavailability denotes dose-corrected exposure relative to a reference, in per cent. A higher bioavailability goes with much systemic uptake. What is called half-life is how long it takes for the measured level to halve. A lower half-life goes with fast loss. A word on the clearance: it is the rate of elimination divided by the concentration. Read a high clearance as a high capacity for elimination. For orientation: AUC(0-t) means exposure summed from dosing to a finite time, without extrapolation to infinity. The CL/F is the apparent clearance, not corrected for the fraction that reaches the circulation. `Cc1cc(-c2nc[nH]n2)ccc1Nc1ncc2c(n1)n(C1CCOCC1)c(=O)n2C`: the Cmax at 24 h stood at 0.733 µg/mL in series [1] and 4.29 µg/mL in [2]. Besides, the inhibition at 20 µM in [3] is -0.02%. The pIC50 in series [4] was 9.40; in series [14] it was 7.08. Moreover, the inhibition at […] in [5] was 96.9%. This molecule also came in with a bioavailability at 24 h in series [6] of 33.2%. Further, the results for the half-life at 24 h in series [7] and in series [13] were 11.8 h and 3.72 h, respectively. Also, the clearance at 24 h in series [8] was 1.21 L/h/kg. The results for the AUC(0-t) at 24 h in [9] and in series [11] were 1.35 µg·h/mL and 4.06 µg·h/mL, respectively. This molecule also yielded a half-life at 5 min, 1 µM in series [10] of 10.5 h. Besides, the CL/F at 24 h in series [12] is 3.72 L/h/kg.
With `Cc1cc(-c2cccs2)ncc1Nc1ncc2c(n1)n(C1CCOCC1)c(=O)n2C`, the outcome in series [15] was Active. Further, the Cmax at 24 h is 0.0238 µg/mL in series [1] and 0.0233 µg/mL in [2]. For the same molecule, the values for the pIC50 in [4] and in [14] were 10.00 and 7.82, respectively. The inhibition at […] in series [5] came out at 97.9%. The molecule further registered a bioavailability at 24 h in series [6] of 99.6%. The figures for the half-life at 24 h in series [7] and in series [13] were 3.45 h and 7.34 h, respectively. The molecule further showed a clearance at 24 h in [8] of 18.4 L/h/kg. For the same molecule, the values for the AUC(0-t) at 24 h in series [9] and in series [11] were 0.277 µg·h/mL and 0.279 µg·h/mL, respectively. For the same molecule, in [10], the half-life at 5 min, 1 µM stood at 1.96 h. The molecule further showed a CL/F at 24 h in series [12] of 12.2 L/h/kg.
For `Cc1cc(-c2cnn(C)c2)ncc1Nc1ncc2c(n1)n([C@H]1CCOC1)c(=O)n2C`, in [4], the pIC50 is 8.22. Besides, the inhibition at […] in [5] is 90.7%. In addition, the half-life at 5 min, 1 µM in series [10] was 28.9 h.
As to `Cc1cc(-c2ccc(C=O)o2)ncc1Nc1ncc2c(n1)n(C1CCOCC1)c(=O)n2C`, the Cmax at 24 h in [1] amounted to 0.00224 µg/mL; in series [2], 0.0252 µg/mL. Further, the inhibition at 20 µM in series [3] was 4.42%. Further, the pIC50 in [4] was 9.70. In addition, the inhibition at […] in [5] turned out to be 98.5%. In series [6], this molecule registered a bioavailability at 24 h of 36.2%. For the same molecule, the half-life at 24 h in series [7] is 9.79 h; in series [13] it was 34.4 h. Also, the exposure AUC(0-t) at 24 h in series [9] was 0.00783 µg·h/mL; in [11], 0.0299 µg·h/mL. In [10], this molecule registered a half-life at 5 min, 1 µM of 0.327 h. The same molecule showed a CL/F at 24 h in [12] of 407 L/h/kg. Besides, the CL in [16] turned out to be 145.21 L/h/kg.
`Cc1cc(-c2cn(C)nc2C)ncc1Nc1ncc2c(n1)n(C1CCOCC1)c(=O)n2C` gave a pIC50 in series [4] of 8.22. The inhibition at […] in [5] amounted to 77.4%. The molecule further displayed a half-life at 5 min, 1 µM in series [10] of 128 h.
Turning to `CC(=O)O[C@H]1C(=O)[C@@]2(C)[C@H]([C@H](OC(=O)c3ccccc3)[C@]3(O)C[C@H](OC(=O)[C@H](O)[C@@H](NC(=O)c4ccccc4)c4ccccc4)C(C)=C1C3(C)C)[C@]1(OC(C)=O)CO[C@@H]1C[C@@H]2O`, the outcome in series [17] was inactive.
`Cc1cnc(-c2cnn(C)c2)cc1Nc1ncc2c(n1)n(C1CCOCC1)c(=O)n2C`: the result in [15] was Active. Besides, the Cmax at 24 h in [1] was found to be 0.406 µg/mL; in series [2] it was 1.32 µg/mL. Also, the inhibition at […] in series [5] turned out to be 99.4%. This molecule also came in with a bioavailability at 24 h in series [6] of 88.5%. The half-life at 24 h in series [7] is 7.08 h; in series [13], 11.6 h. Besides, the clearance at 24 h in [8] is 0.7 L/h/kg. Also, the AUC(0-t) at 24 h worked out at 6.47 µg·h/mL in series [9] and 7.3 µg·h/mL in series [11]. Moreover, the half-life at 5 min, 1 µM in series [10] is 4.81 h. Moreover, the CL/F at 24 h in series [12] is 0.96 L/h/kg. Also, the pIC50 in series [14] is 7.56.
As to `COc1ccc(-c2cc(C)c(Nc3ncc4c(n3)n(C3CCOCC3)c(=O)n4C)cn2)cn1`, the Cmax at 24 h in [1] and in series [2] was 1.96 µg/mL in each case. The inhibition at 20 µM in series [3] was found to be 16.8%. For the same molecule, the pIC50 in series [4] was 8.52; in [14], 7.10. The inhibition at […] in series [5] turned out to be 96.7%. The bioavailability at 24 h in series [6] came to 59.6%. Also, the half-life at 24 h is 3.34 h in series [7] and 4.37 h in series [13]. In series [8], this molecule gave a clearance at 24 h of 0.38 L/h/kg. In addition, the figures for the AUC(0-t) at 24 h in series [9] and in series [11] were 7.86 µg·h/mL and 13.2 µg·h/mL, respectively. In series [10], this molecule displayed a half-life at 5 min, 1 µM of 19.2 h. Besides, the CL/F at 24 h in series [12] is 0.64 L/h/kg.
For `Cc1ccc(-c2cnn(C)c2)cc1Nc1ncc2c(n1)n(C1CCOCC1)c(=O)n2C`, in series [4], the pIC50 was 8.70. Further, the inhibition at […] in [5] was 98%. In series [10], this molecule came in with a half-life at 5 min, 1 µM of 3.04 h.
`Cc1cc(-c2cnn(C(F)F)c2)ncc1Nc1ncc2c(n1)n(C1CCOCC1)c(=O)n2C`: in series [15], the outcome was Active. The Cmax at 24 h in series [1] was 0.76 µg/mL; in series [2], 1.89 µg/mL. Besides, the inhibition at 20 µM in series [3] stood at 22.7%. Also, the pIC50 in series [4] is 9.40; in [14], 7.17. Further, the inhibition at […] in series [5] was determined as 96.9%. In series [6], this molecule registered a bioavailability at 24 h of 84%. Moreover, the half-life at 24 h in series [7] was 1.76 h; in series [13] it was 5.82 h. In [8], this molecule had a clearance at 24 h of 0.98 L/h/kg. In addition, the AUC(0-t) at 24 h in [9] was 4.44 µg·h/mL; in series [11], 5.29 µg·h/mL. This molecule gave a half-life at 5 min, 1 µM in series [10] of 2.78 h. The CL/F at 24 h in series [12] was 1.06 L/h/kg.
In the case of `COc1ccc(-c2cc(C)c(Nc3ncc4c(n3)n(C3CCOCC3)c(=O)n4C)cn2)cc1OC`, in series [15], the outcome was Active. Further, the Cmax at 24 h was 0.341 µg/mL in series [1] and 0.869 µg/mL in series [2]. The inhibition at 20 µM in series [3] worked out at 8.61%. The results for the pIC50 in series [4] and in [14] were 9.00 and 7.32, respectively. For the same molecule, the inhibition at […] in series [5] turned out to be 99.9%. This molecule also came in with a bioavailability at 24 h in series [6] of 46.6%. Further, the half-life at 24 h is 4.73 h in series [7] and 6.73 h in series [13]. The molecule further gave a clearance at 24 h in series [8] of 0.66 L/h/kg. Also, the AUC(0-t) at 24 h in series [9] was 3.45 µg·h/mL; in series [11], 7.4 µg·h/mL. In [10], the half-life at 5 min, 1 µM came out at 2.31 h. The molecule further gave a CL/F at 24 h in series [12] of 1.34 L/h/kg.
Take `Cc1cc(-c2ccsc2)ncc1Nc1ncc2c(n1)n(C1CCOCC1)c(=O)n2C`: the outcome in series [15] was Active. Moreover, the pIC50 in series [4] is 9.10; in series [14] it was 8.42. Besides, the inhibition at […] in [5] came out at 99.8%. The half-life at 5 min, 1 µM in series [10] was determined as 2.51 h.
`Cc1cc(-c2cnn(C)c2)ncc1Nc1ncc2c(n1)n(C1CCN(S(=O)(=O)C3CC3)CC1)c(=O)n2C` had a pIC50 in series [4] of 8.70. In addition, in series [5], the inhibition at […] came out at 84.9%. In addition, the half-life at 5 min, 1 µM in series [10] stood at 3.04 h.
In series [4], `Cc1cc(-c2cn[nH]c2)ncc1Nc1ncc2c(n1)n(C1CCOCC1)c(=O)n2C` showed a pIC50 of 9.40. In addition, in series [5], the inhibition at […] was determined as 86.7%. This molecule also returned a half-life at 5 min, 1 µM in series [10] of 0.963 h.
For `Cc1nc(-c2cn[nH]c2)ccc1Nc1ncc2c(n1)n(C1CCOCC1)c(=O)n2C`, the pIC50 in series [4] was 7.60. Moreover, the inhibition at […] in series [5] is 27.7%. Moreover, the half-life at 5 min, 1 µM in [10] is 1.2 h.
As for `COc1ccc2c(c1)CCN2c1ncc2c(n1)n(C1CCOCC1)c(=O)n2C`, the pIC50 in series [4] was 8.22. Also, the inhibition at […] in series [5] is 86.1%. The molecule also registered a half-life at 5 min, 1 µM in [10] of 0.138 h.
